Experimental data from PubChem BioAssay (NCI).
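Assay format: 96-well plates, 48-hour exposure. TGI: concentration producing complete growth inhibition.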

Experiments:
Experiment in all cases: growth of human tumour cells (NCI), 48 h
HCT-15 colon = system: HCT-15 colon
DMS 114 small cell lung = system: DMS 114 small cell lung
SK-MEL-28 melanoma = system: SK-MEL-28 melanoma
SNB-78 CNS = system: SNB-78 CNS
COLO 205 colon = system: COLO 205 colon
ACHN renal = system: ACHN renal
DMS 273 small cell lung = system: DMS 273 small cell lung
HL-60(TB) leukemia = system: HL-60(TB) leukemia
HCT-116 colon = system: HCT-116 colon
SK-MEL-2 melanoma = system: SK-MEL-2 melanoma
SF-268 CNS = system: SF-268 CNS
MALME-3M melanoma = system: MALME-3M melanoma
SF-295 CNS = system: SF-295 CNS
EKVX NSCLC = system: EKVX NSCLC
NCI-H226 lung = system: NCI-H226 lung
NCI-H460 lung = system: NCI-H460 lung
SNB-19 CNS = system: SNB-19 CNS
KM20L2 colon = system: KM20L2 colon
OVCAR-5 ovarian = system: OVCAR-5 ovarian
SN12C renal = system: SN12C renal
M14 melanoma = system: M14 melanoma
SW-620 colon = system: SW-620 colon
HOP-92 NSCLC = system: HOP-92 NSCLC
HOP-62 NSCLC = system: HOP-62 NSCLC
RXF 393 renal = system: RXF 393 renal
UO-31 renal = system: UO-31 renal
LXFL 529 NSCLC = system: LXFL 529 NSCLC
NCI-H23 lung = system: NCI-H23 lung
KM12 colon = system: KM12 colon
A549 NSCLC = system: A549 NSCLC
HT29 colon = system: HT29 colon
CCRF-CEM leukemia = system: CCRF-CEM leukemia
TK-10 renal = system: TK-10 renal
U251 CNS = system: U251 CNS
IGROV1 ovarian = system: IGROV1 ovarian
OVCAR-3 ovarian = system: OVCAR-3 ovarian
DLD-1 colon = system: DLD-1 colon
786-0 renal = system: 786-0 renal
XF 498 CNS = system: XF 498 CNS
K-562 leukemia = system: K-562 leukemia
OVCAR-8 ovarian = system: OVCAR-8 ovarian
SNB-75 CNS = system: SNB-75 CNS
HCC-2998 colon = system: HCC-2998 colon
UACC-257 melanoma = system: UACC-257 melanoma
OVCAR-4 ovarian = system: OVCAR-4 ovarian
LOX IMVI melanoma = system: LOX IMVI melanoma
UACC-62 melanoma = system: UACC-62 melanoma
SK-MEL-5 melanoma = system: SK-MEL-5 melanoma
RXF-631 renal = system: RXF-631 renal
SR leukemia = system: SR leukemia
RPMI-8226 leukemia = system: RPMI-8226 leukemia
SF-539 CNS = system: SF-539 CNS
M19-MEL melanoma = system: M19-MEL melanoma
CAKI-1 renal = system: CAKI-1 renal
SK-OV-3 ovarian = system: SK-OV-3 ovarian
MOLT-4 leukemia = system: MOLT-4 leukemia
NCI-H522 lung = system: NCI-H522 lung
A498 renal = system: A498 renal

## COc1c2c(c3c(c1C1OC(C)[C@@H](C)O1)CC(C)(C)O3)C(=O)c1ccccc1C2=O (stereo partly specified)
HCT-15 colon
  TGI: > 100 µM
DMS 114 small cell lung
  TGI: > 100 µM
SK-MEL-28 melanoma
  TGI: > 100 µM
SNB-78 CNS
  TGI: > 100 µM
COLO 205 colon
  TGI: > 100 µM
ACHN renal
  TGI: > 100 µM
DMS 273 small cell lung
  TGI: 69.7 µM
HL-60(TB) leukemia
  TGI: 31.6 µM
HCT-116 colon
  TGI: > 100 µM
SK-MEL-2 melanoma
  TGI: > 100 µM
SF-268 CNS
  TGI: > 100 µM
MALME-3M melanoma
  TGI: > 100 µM
SF-295 CNS
  TGI: > 100 µM
EKVX NSCLC
  TGI: > 100 µM
NCI-H226 lung
  TGI: > 100 µM
NCI-H460 lung
  TGI: > 100 µM
SNB-19 CNS
  TGI: > 100 µM
KM20L2 colon
  TGI: > 100 µM
OVCAR-5 ovarian
  TGI: > 100 µM
SN12C renal
  TGI: > 100 µM
M14 melanoma
  TGI: > 100 µM
SW-620 colon
  TGI: 63.6 µM
HOP-92 NSCLC
  TGI: 89.7 µM
HOP-62 NSCLC
  TGI: > 100 µM
RXF 393 renal
  TGI: > 100 µM
UO-31 renal
  TGI: > 100 µM
LXFL 529 NSCLC
  TGI: > 100 µM
NCI-H23 lung
  TGI: > 100 µM
KM12 colon
  TGI: > 100 µM
A549 NSCLC
  TGI: > 100 µM
HT29 colon
  TGI: > 100 µM
CCRF-CEM leukemia
  TGI: 53.2 µM
TK-10 renal
  TGI: > 100 µM
U251 CNS
  TGI: > 100 µM
IGROV1 ovarian
  TGI: > 100 µM
OVCAR-3 ovarian
  TGI: > 100 µM
DLD-1 colon
  TGI: > 100 µM
786-0 renal
  TGI: > 100 µM
XF 498 CNS
  TGI: > 100 µM
K-562 leukemia
  TGI: > 100 µM
OVCAR-8 ovarian
  TGI: > 100 µM
SNB-75 CNS
  TGI: > 100 µM
HCC-2998 colon
  TGI: > 100 µM
UACC-257 melanoma
  TGI: > 100 µM
OVCAR-4 ovarian
  TGI: > 100 µM
LOX IMVI melanoma
  TGI: 28.6 µM
UACC-62 melanoma
  TGI: > 100 µM
SK-MEL-5 melanoma
  TGI: > 100 µM
RXF-631 renal
  TGI: 33.4 µM
SR leukemia
  TGI: 68.2 µM
RPMI-8226 leukemia
  TGI: 52.2 µM
SF-539 CNS
  TGI: > 100 µM
M19-MEL melanoma
  TGI: > 100 µM
CAKI-1 renal
  TGI: > 100 µM
SK-OV-3 ovarian
  TGI: > 100 µM

## c1ccc(SC2(Sc3ccccc3)CCCC2)cc1
HCT-15 colon
  TGI: > 100 µM
DMS 114 small cell lung
  TGI: > 100 µM
SK-MEL-28 melanoma
  TGI: > 100 µM
SNB-78 CNS
  TGI: > 100 µM
COLO 205 colon
  TGI: > 100 µM
ACHN renal
  TGI: > 100 µM
DMS 273 small cell lung
  TGI: > 100 µM
HL-60(TB) leukemia
  TGI: > 100 µM
HCT-116 colon
  TGI: > 100 µM
MOLT-4 leukemia
  TGI: > 100 µM
SK-MEL-2 melanoma
  TGI: > 100 µM
SF-268 CNS
  TGI: > 100 µM
SF-295 CNS
  TGI: > 100 µM
EKVX NSCLC
  TGI: > 100 µM
NCI-H460 lung
  TGI: > 100 µM
SNB-19 CNS
  TGI: > 100 µM
KM20L2 colon
  TGI: > 100 µM
SN12C renal
  TGI: > 100 µM
M14 melanoma
  TGI: > 100 µM
SW-620 colon
  TGI: > 100 µM
HOP-92 NSCLC
  TGI: > 100 µM
HOP-62 NSCLC
  TGI: > 100 µM
RXF 393 renal
  TGI: > 100 µM
UO-31 renal
  TGI: > 100 µM
NCI-H23 lung
  TGI: > 100 µM
KM12 colon
  TGI: > 100 µM
A549 NSCLC
  TGI: > 100 µM
CCRF-CEM leukemia
  TGI: > 100 µM
TK-10 renal
  TGI: > 100 µM
U251 CNS
  TGI: > 100 µM
OVCAR-3 ovarian
  TGI: > 100 µM
DLD-1 colon
  TGI: > 100 µM
786-0 renal
  TGI: > 100 µM
XF 498 CNS
  TGI: > 100 µM
K-562 leukemia
  TGI: > 100 µM
OVCAR-8 ovarian
  TGI: > 100 µM
SNB-75 CNS
  TGI: > 100 µM
UACC-257 melanoma
  TGI: > 100 µM
OVCAR-4 ovarian
  TGI: > 100 µM
LOX IMVI melanoma
  TGI: > 100 µM
UACC-62 melanoma
  TGI: > 100 µM
SK-MEL-5 melanoma
  TGI: > 100 µM
RXF-631 renal
  TGI: > 100 µM
SR leukemia
  TGI: > 100 µM
RPMI-8226 leukemia
  TGI: > 100 µM
SF-539 CNS
  TGI: > 100 µM
M19-MEL melanoma
  TGI: > 100 µM
NCI-H522 lung
  TGI: > 100 µM
CAKI-1 renal
  TGI: > 100 µM
A498 renal
  TGI: > 100 µM
SK-OV-3 ovarian
  TGI: > 100 µM
